Key:
[1] = target: T1, SNAT1 (SLC38A1) (Homo sapiens, UniProt Q9H2H9); assay: glutamine uptake in Xenopus laevis oocytes expressing hSNAT1; type: cell-based
T1 sequence (Q9H2H9 1-487): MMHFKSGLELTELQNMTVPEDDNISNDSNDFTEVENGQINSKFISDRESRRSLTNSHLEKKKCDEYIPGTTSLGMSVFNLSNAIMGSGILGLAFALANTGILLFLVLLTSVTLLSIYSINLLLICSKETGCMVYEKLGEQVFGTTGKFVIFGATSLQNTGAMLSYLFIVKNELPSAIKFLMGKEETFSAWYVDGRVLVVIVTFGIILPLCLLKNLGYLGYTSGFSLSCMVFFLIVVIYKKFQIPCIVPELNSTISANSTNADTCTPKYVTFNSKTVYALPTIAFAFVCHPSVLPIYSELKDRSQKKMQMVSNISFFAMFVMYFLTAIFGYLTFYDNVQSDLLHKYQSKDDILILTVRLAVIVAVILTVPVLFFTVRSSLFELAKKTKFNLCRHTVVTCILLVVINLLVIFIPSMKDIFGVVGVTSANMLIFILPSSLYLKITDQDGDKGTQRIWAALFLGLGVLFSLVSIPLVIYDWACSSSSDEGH

[2] = target: T2, LAT1 (SLC7A5) (Rattus norvegicus, UniProt Q63016); assay: isoleucine uptake in Xenopus laevis oocytes expressing h4F2hc/rLAT1; type: cell-based
T2 construct: with human 4F2hc
T2 sequence (Q63016 whole entry): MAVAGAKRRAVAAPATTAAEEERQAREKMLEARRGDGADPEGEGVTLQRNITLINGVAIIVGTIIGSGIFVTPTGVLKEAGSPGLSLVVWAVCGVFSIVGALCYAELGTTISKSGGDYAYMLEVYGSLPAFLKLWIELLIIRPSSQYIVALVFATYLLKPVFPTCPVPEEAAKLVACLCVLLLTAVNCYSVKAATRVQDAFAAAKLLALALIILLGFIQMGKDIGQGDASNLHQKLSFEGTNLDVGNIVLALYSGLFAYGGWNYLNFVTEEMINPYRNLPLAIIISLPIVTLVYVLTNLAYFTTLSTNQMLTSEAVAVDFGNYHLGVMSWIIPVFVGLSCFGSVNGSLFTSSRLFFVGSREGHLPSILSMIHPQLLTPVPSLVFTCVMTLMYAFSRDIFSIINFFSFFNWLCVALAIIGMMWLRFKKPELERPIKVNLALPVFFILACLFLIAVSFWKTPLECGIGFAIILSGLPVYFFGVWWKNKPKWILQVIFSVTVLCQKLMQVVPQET
T2 sequence (P08195 103-630 partner): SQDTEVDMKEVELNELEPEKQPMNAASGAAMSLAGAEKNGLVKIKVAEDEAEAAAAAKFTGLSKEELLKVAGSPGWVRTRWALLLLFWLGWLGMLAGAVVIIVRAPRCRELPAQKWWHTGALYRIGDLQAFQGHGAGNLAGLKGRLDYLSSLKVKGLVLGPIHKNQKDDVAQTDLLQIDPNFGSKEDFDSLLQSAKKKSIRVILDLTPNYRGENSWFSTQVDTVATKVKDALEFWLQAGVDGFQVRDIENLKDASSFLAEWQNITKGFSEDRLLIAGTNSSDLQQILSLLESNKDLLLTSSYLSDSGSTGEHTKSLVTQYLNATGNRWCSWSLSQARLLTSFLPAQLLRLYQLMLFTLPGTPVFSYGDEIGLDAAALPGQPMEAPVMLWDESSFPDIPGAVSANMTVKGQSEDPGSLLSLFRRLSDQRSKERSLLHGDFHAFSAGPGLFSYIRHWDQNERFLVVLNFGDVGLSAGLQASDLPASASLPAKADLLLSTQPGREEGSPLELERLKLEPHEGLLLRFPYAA

SMILES | glutamine uptake in Xenopus laevis oocytes expressing hSNAT1 [1] | isoleucine uptake in Xenopus laevis oocytes expressing h4F2hc/rLAT1 [2]
NC(=O)CC[C@H](N)C(=O)O [glutamine] | Glutamine uptake was used to measure hSNAT1, hSNAT2, and hASCT2 activity | –
CC[C@H](C)[C@H](N)C(=O)O [isoleucine] | – | isoleucine transport was used to measure h4F2hc/rLAT1 activity
